Results: patent US20230183237A1, “COMPETITIVE AND NONCOMPETITIVE INHIBITORS OF THE MUSCARINIC ACETYLCHOLINE RECEPTOR M5” (Vanderbilt University, priority 2020, published 2023)

These compounds were tested against T1, hM5 (Homo sapiens, UniProt P08912) (assay: Calcium mobilization concentration-response (IC50 vs EC80 acetylcholine), CHO hM5). Details: CELL LINE hM5; calcium mobilization, EC80 acetylcholine addition; read-out: IC50.
T1 construct: expressed in transfected cells
T1 sequence (P08912 1-532): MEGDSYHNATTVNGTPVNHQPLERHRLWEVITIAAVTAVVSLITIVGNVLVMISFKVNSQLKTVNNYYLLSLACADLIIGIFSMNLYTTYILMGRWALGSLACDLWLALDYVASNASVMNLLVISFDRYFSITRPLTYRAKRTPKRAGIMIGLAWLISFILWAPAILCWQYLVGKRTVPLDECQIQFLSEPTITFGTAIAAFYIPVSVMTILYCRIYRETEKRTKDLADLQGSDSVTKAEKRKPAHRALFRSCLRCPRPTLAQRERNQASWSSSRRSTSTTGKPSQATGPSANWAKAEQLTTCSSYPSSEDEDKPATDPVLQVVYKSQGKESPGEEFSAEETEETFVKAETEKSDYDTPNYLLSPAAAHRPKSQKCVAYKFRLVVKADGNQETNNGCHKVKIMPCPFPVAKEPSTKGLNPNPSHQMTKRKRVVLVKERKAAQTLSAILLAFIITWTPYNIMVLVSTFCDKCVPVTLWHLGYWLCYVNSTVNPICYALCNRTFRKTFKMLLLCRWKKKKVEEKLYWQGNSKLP
Assay type: cell-based
Outline: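 IC50 values derive from percent maximal acetylcholine response after an EC80 ACh addition, measured as kinetic calcium fluorescence (static ratio, max−min). Test compounds were added 140 s before agonist. Cells: stable hM5-CHO in HEPES-buffered HBSS with 2.5 mM probenecid, pH 7.4; ≥3 independent triplicate determinations.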

COc1cc2ncnn2cc1C1CCN(S(=O)(=O)c2cc3c(cc2C)OCC3C)CC1 (stereo not drawn) [Compound 88, 6-(1-((3,6-dimethyl-2,3-dihydrobenzofuran-5-yl)sulfonyl)piperidin-4-yl)-7-methoxy-[1,2,4]triazolo[1,5-a]pyridine] and Cc1cc(S(=O)(=O)N2CCC(c3cn4ncnc4cc3C)CC2)c(C)s1 [Compound 145, 6-(1-((2,5-dimethylthiophen-3-yl)sulfonyl)piperidin-4-yl)-7-methyl-[1,2,4]triazolo[1,5-a]pyridine] are within 1.5-fold of each other in IC50: 0.804 µM for the first, 0.989 µM for the second.

First: CCc1cc2ncnn2cc1C1CCN(S(=O)(=O)c2cnc3n2CCCC3)CC1 [Compound 335, 7-ethyl-6-(1-((5,6,7,8-tetrahydroimidazo[1,2-a]pyridin-3-yl)sulfonyl)piperidin-4-yl)-[1,2,4]triazolo[1,5-a]pyridine]
Second: Cc1cc2ncnn2cc1C1CCN(S(=O)(=O)c2cnc3n2CCCC3)CC1 [Compound 322, 7-methyl-6-(1-((5,6,7,8-tetrahydroimidazo[1,2-a]pyridin-3-yl)sulfonyl)piperidin-4-yl)-[1,2,4]triazolo[1,5-a]pyridine]
The IC50 of the first is 8.5-fold higher: 0.083 µM for the first, 0.0098 µM for the second.

Cc1ncc(S(=O)(=O)N2CCC(c3nn4ncnc4cc3C)CC2)s1 [Compound 214, 2-methyl-5-((4-(7-methyl-[1,2,4]triazolo[1,5-b]pyridazin-6-yl)piperidin-1-yl)sulfonyl)thiazole] and Cc1cc(S(=O)(=O)N2CCC(c3nn4ccnc4cc3C)CC2)cnc1Cl [Compound 54, 6-(1-((6-chloro-5-methylpyridin-3-yl)sulfonyl)piperidin-4-yl)-7-methylimidazo[1,2-b]pyridazine] cannot be ordered by IC50: > 10 µM for the first, > 10 µM for the second.

First: Cc1cc2ncnn2cc1C1CCN(S(=O)(=O)c2c(C)n[nH]c2C)CC1 [Compound 157, 6-(1-((3,5-dimethyl-1H-pyrazol-4-yl)sulfonyl)piperidin-4-yl)-7-methyl-[1,2,4]triazolo[1,5-a]pyridine]
Second: Cc1cc2ncnn2cc1C1CCN(S(=O)(=O)c2cccc3nonc23)CC1 [Compound 168, 4-((4-(7-methyl-[1,2,4]triazolo[1,5-a]pyridin-6-yl)piperidin-1-yl)sulfonyl)benzo[c][1,2,5]oxadiazole]
The IC50 of the first is 3.5-fold higher: 2.9 µM for the first, 0.821 µM for the second.

First: Cc1ccncc1C1CCN(S(=O)(=O)c2cnc(C)n2C)CC1 [Compound 385, 3-(1-((1,2-dimethyl-1H-imidazol-5-yl)sulfonyl)piperidin-4-yl)-4-methylpyridine]
Second: Cc1ncc(S(=O)(=O)N2CCC(c3ccc4c(c3)OCO4)CC2)n1C [Compound 358, 4-(benzo[d][1,3]dioxol-5-yl)-1-((1,2-dimethyl-1H-imidazol-5-yl)sulfonyl)piperidine]
The IC50 of the first is higher: > 10 µM for the first, 1.39 µM for the second.

First: Cc1cc2ncnn2cc1C1CCN(S(=O)(=O)c2ccccc2-c2ccno2)CC1 [Compound 96, 5-(2-((4-(7-methyl-[1,2,4]triazolo[1,5-a]pyridin-6-yl)piperidin-1-yl)sulfonyl)phenyl)isoxazole]
Second: O=S(=O)(c1cnn2c1CCC2)N1CCC(c2cn3ncnc3cc2F)CC1 [Compound 232, 6-(1-((5,6-dihydro-4H-pyrrolo[1,2-b]pyrazol-3-yl)sulfonyl)piperidin-4-yl)-7-fluoro-[1,2,4]triazolo[1,5-a]pyridine]
The IC50 of the first is higher: > 10 µM for the first, 0.026 µM for the second. The second is the more potent here.

Going from Cc1nn(C(F)F)cc1S(=O)(=O)N1CCC(c2cn3ncnc3cc2C(F)(F)F)CC1 [Compound 276, 6-(1-((1-(difluoromethyl)-3-methyl-1H-pyrazol-4-yl)sulfonyl)piperidin-4-yl)-7-(trifluoromethyl)-[1,2,4]triazolo[1,5-a]pyridine] to Cc1c(C2CCN(S(=O)(=O)c3cnn(C(F)F)c3C)CC2)cn2ncnc2c1F [Compound 269, 6-(1-((1-(difluoromethyl)-5-methyl-1H-pyrazol-4-yl)sulfonyl)piperidin-4-yl)-8-fluoro-7-methyl-[1,2,4]triazolo[1,5-a]pyridine], the IC50 falls from > 10 µM to 0.326 µM. The second is the more potent here.

O=S(=O)(c1ccc2c(c1)CCO2)N1CCC(c2cc(-c3ccco3)n[nH]2)CC1 [Compound 4, 1-((2,3-dihydrobenzofuran-5-yl)sulfonyl)-4-(3-(furan-2-yl)-1H-pyrazol-5-yl)piperidine] and O=S(=O)(c1ccc2c(c1)CCO2)N1CCC(c2nccs2)CC1 [Compound 98, 2-(1-((2,3-dihydrobenzofuran-5-yl)sulfonyl)piperidin-4-yl)thiazole] cannot be ordered by IC50: > 10 µM for the first, > 10 µM for the second.

First: Cn1ncc(S(=O)(=O)N2CCC(c3cc(F)c4ncnn4c3)CC2)c1Cl [Compound 382, 6-(1-((5-chloro-1-methyl-1H-pyrazol-4-yl)sulfonyl)piperidin-4-yl)-8-fluoro-[1,2,4]triazolo[1,5-a]pyridine]
Second: O=S(=O)(c1ccc2c(c1)CCO2)N1CC=C(c2cn3ncnc3cc2Cl)CC1 [Compound 139, 7-chloro-6-(1-((2,3-dihydrobenzofuran-5-yl)sulfonyl)-1,2,3,6-tetrahydropyridin-4-yl)-[1,2,4]triazolo[1,5-a]pyridine]
The IC50 of the first is 5.7-fold higher: 0.849 µM for the first, 0.149 µM for the second. The second is the more potent here.

Same assay, conditions: CELL LINE hM5; vs EC80 acetylcholine; read-out: IC50

Compared with Cc1ncc(S(=O)(=O)N2CCC(c3cnc(N(C)C)cc3C)CC2)o1 [Compound 564, N,N,4-trimethyl-5-(1-((2-methyloxazol-5-yl)sulfonyl)piperidin-4-yl)pyridin-2-amine], Cc1cc(N(C)C)ncc1C1CCN(S(=O)(=O)c2cnn(C)c2C)CC1 [Compound 550, 5-(1-((1,5-dimethyl-1H-pyrazol-4-yl)sulfonyl)piperidin-4-yl)-N,N,4-trimethylpyridin-2-amine] is 10-fold lower in IC50: 0.094 µM for the first, 0.009 µM for the second.

[2H]C1([2H])CC(c2cn3ncnc3cc2F)CC([2H])([2H])N1S(=O)(=O)c1c(C)nn(C)c1Cl [Compound 475, 6-(1-((5-chloro-1,3-dimethyl-1H-pyrazol-4-yl)sulfonyl)piperidin-4-yl-2,2,6,6-d4)-7-fluoro-[1,2,4]triazolo[1,5-a]pyridine] and COc1c(S(=O)(=O)N2CCC(c3cn4ncnc4cc3F)CC2)cnn1C [Compound 574, 7-fluoro-6-(1-((5-methoxy-1-methyl-1H-pyrazol-4-yl)sulfonyl)piperidin-4-yl)-[1,2,4]triazolo[1,5-a]pyridine] are within 1.5-fold of each other in IC50: 0.096 µM for the first, 0.137 µM for the second.

Compared with Cn1ncc(S(=O)(=O)N2CCC(F)(c3cn4ncnc4cc3F)CC2)c1C(F)F [Compound 504, 6-(1-((5-(difluoromethyl)-1-methyl-1H-pyrazol-4-yl)sulfonyl)-4-fluoropiperidin-4-yl)-7-fiuoro-[1,2,4]triazolo[1,5-a]pyridine], Cc1cc2ncnn2cc1C1(F)CCN(S(=O)(=O)c2cnn(C)c2CC#N)CC1 [Compound 457, 2-(4-((4-fluoro-4-(7-methyl-[1,2,4]triazolo[1,5-a]pyridin-6-yl)piperidin-1-yl)sulfonyl)-1-methyl-1H-pyrazol-5-yl)acetonitrile] is higher in IC50: 1.26 µM for the first, > 10 µM for the second. The first is the more potent here.

O=S(=O)(c1cnc2sccn12)N1CCC(c2cn3ncnc3cc2C(F)(F)F)CC1 [Compound 518, 5-((4-(7-(trifluoromethyl)-[1,2,4]triazolo[1,5-a]pyridin-6-yl)piperidin-1-yl)sulfonyl)imidazo[2,1-b]thiazole] and O=S(=O)(c1cnn2ccccc12)N1CCC(c2cn3ncnc3cc2C(F)(F)F)CC1 [Compound 511, 6-(1-(pyrazolo[1,5-a]pyridin-3-ylsulfonyl)piperidin-4-yl)-7-(trifluoromethyl)-[1,2,4]triazolo[1,5-a]pyridine] are within 1.5-fold of each other in IC50: 0.068 µM for the first, 0.102 µM for the second.

Compared with COC1(c2cn3ncnc3cc2C)CCN(S(=O)(=O)c2cnn3c2OCCC3)CC1 [Compound 416, 3-((4-methoxy-4-(7-methyl-[1,2,4]triazolo[1,5-a]pyridin-6-yl)piperidin-1-yl)sulfonyl)-6,7-dihydro-5H-pyrazolo[5,1-b][1,3]oxazine], Cc1c(S(=O)(=O)N2CCC(c3cn4ncnc4cc3C(F)F)CC2)cnn1C [Compound 455, 7-(difluoromethyl)-6-(1-((1,5-dimethyl-1H-pyrazol-4-yl)sulfonyl)piperidin-4-yl)-[1,2,4]triazolo[1,5-a]pyridine] is lower in IC50: > 10 µM for the first, 0.063 µM for the second.

Going from Cn1nc(C2CCN(S(=O)(=O)c3cnn(C)c3Cl)CC2)cc1-c1ccco1 [Compound 591, 1-((5-Chloro-1-methyl-1H-pyrazol-4-yl)sulfonyl)-4-(5-(furan-2-yl)-1-methyl-1H-pyrazol-3-yl)piperidine] to CCc1cc2ncnn2cc1C1CCN(S(=O)(=O)c2cnn3ccccc23)CC1 [Compound 509, 7-ethyl-6-(1-(pyrazolo[1,5-a]pyridin-3-ylsulfonyl)piperidin-4-yl)-[1,2,4]triazolo[1,5-a]pyridine], the IC50 falls from > 10 µM to 0.15 µM.

First: Cc1cc2nccn2nc1N1CCN(S(=O)(=O)c2cnn(C)c2C)CC1 [Compound 434, 6-[4-(1,5-Dimethylpyrazol-4-yl)sulfonylpiperazin-1-yl]-7-methyl-imidazo[1,2-b]pyridazine]
Second: Cc1ncc(S(=O)(=O)N2CCC(c3cn4ccnc4cc3Cl)CC2)s1 [Compound 589, 5-((4-(7-chloroimidazo[1,2-a]pyridin-6-yl)piperidin-1-yl)sulfonyl)-2-methylthiazole]
The IC50 of the first is 12-fold lower: 0.043 µM for the first, 0.53 µM for the second. The first is the more potent here.

Cn1cnnc1S(=O)(=O)N1CCC(c2cn3ncnc3cc2C(F)(F)F)CC1 [Compound 520, 6-(1-((4-methyl-4H-1,2,4-triazol-3-yl)sulfonyl)piperidin-4-yl)-7-(trifluoromethyl)-[1,2,4]triazolo[1,5-a]pyridine] was tested, and the IC50 was > 10 µM.
